These results are taken from ChEMBL document CHEMBL1156061, “Design and synthesis of substituted nicotinamides as inhibitors of soluble epoxide hydrolase” (Bioorg Med Chem Lett, 2009).

Series [1] addresses T1, Bifunctional epoxide hydrolase 2 (Homo sapiens, UniProt P34913).
T1 sequence (P34913 whole entry): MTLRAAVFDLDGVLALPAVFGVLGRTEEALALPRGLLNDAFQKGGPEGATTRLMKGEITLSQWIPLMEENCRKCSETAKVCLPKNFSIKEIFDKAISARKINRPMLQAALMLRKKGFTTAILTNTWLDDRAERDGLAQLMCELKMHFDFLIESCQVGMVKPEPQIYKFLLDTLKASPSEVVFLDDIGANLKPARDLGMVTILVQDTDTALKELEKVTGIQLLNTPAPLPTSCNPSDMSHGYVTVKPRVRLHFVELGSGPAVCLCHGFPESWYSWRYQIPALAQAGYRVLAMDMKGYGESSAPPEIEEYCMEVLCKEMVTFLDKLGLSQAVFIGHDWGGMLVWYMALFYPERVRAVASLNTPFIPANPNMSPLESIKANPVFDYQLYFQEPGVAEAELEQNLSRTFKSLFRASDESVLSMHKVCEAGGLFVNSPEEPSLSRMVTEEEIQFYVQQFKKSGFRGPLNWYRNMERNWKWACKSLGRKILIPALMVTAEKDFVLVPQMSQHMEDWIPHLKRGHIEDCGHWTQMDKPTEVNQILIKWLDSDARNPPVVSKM
The experiment in a line: Inhibition of human soluble EH.

The target in series [2] is T2, Bifunctional epoxide hydrolase 2 (Rattus norvegicus, UniProt P80299).
T2 sequence (P80299 whole entry): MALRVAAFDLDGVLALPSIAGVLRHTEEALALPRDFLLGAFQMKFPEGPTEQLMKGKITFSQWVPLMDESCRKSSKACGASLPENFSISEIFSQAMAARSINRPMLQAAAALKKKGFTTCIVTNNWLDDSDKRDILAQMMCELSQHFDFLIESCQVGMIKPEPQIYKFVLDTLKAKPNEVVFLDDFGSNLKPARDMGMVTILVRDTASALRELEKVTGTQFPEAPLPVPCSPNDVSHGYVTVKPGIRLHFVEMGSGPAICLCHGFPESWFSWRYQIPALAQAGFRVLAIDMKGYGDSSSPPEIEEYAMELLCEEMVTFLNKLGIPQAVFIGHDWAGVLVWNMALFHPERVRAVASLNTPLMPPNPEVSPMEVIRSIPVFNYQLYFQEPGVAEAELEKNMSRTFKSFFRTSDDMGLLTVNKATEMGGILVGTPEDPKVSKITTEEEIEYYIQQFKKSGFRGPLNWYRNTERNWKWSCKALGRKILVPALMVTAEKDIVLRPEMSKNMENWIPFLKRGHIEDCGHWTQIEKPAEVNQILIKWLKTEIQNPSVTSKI
Description: Inhibition of rat sEH.

The nature of series [3]: Metabolic stability in human liver microsomes assessed as half life. The series is classed as ADME, Microsome. For orientation: Microsomes from liver hold many membrane-bound enzymes, among them those of drug oxidation.
The nature of series [4]: Metabolic stability in rat liver microsomes assessed as half life. The class given is ADME, Microsome.
For series [5], the target named is T1, Bifunctional epoxide hydrolase 2. The experiment in a line: Inhibition of soluble EH in human HepG2 cells by cellular assay. The series is classed as cell-based.
A short description of series [6]: Plasma concentration in Sprague-Dawley rat at 5 mg/kg, po after 1 hr. The series is classed as ADME, organism-based. Set-up: dose 5 mg/kg, route oral.

Take `CS(=O)(=O)c1ccc(CNC(=O)c2ccc(OCCC(F)(F)F)nc2)cc1`: the IC50 (as a rule, the midpoint of a concentration-inhibition curve) in series [1] was 110 nM; in series [2], 25 nM. Also, the half-life (commonly the time in which the quantity being followed falls by half) in series [3] was determined as 2.6 h; in series [4] it was 2.88 h.
`O=C(NCc1ccc(Cl)cc1)c1ccc(OCCC(F)(F)F)nc1`: the 50% inhibitory concentration (IC50) in series [2] stood at 7 nM.
For `O=C(NC1CCOCC1)C1CCN(C(=O)NCc2ccc(Cl)cc2Cl)CC1`, the half-life in series [3] amounted to 5 h; in series [4], 1.73 h.
For the compound `CS(=O)(=O)c1ccc(-c2ccc(CNC(=O)c3ccc(OCCC(F)(F)F)nc3)cc2)cc1`, the half-maximal inhibitory concentration (IC50) worked out at 24 nM in series [5], 12 nM in series [1] and 4.3 nM in series [2].
For the compound `O=C(NCc1ccc(Br)cc1OC(F)(F)F)c1ccc(OCC(F)(F)F)nc1`, the IC50 in series [5] came out at 0.1 nM; in series [1] it was 12 nM; in series [2] it was 7 nM. The values for the half-life in series [3] and in series [4] were 5 h and 0.283 h, respectively.
`CS(=O)(=O)c1cc(Cl)ccc1CNC(=O)c1ccc(OCC(F)(F)F)nc1` registered a concentration for half-maximal inhibition (IC50) in series [2] of 11 nM. In addition, the half-life turned out to be 5 h in series [3] and 1.65 h in series [4].
Regarding `O=C(NCc1ccccc1)c1ccc(OCCC(F)(F)F)nc1`, in series [1], the IC50 is 1200 nM.
Take `CS(=O)(=O)c1ccc(CNC(=O)c2ccc(OCC(F)(F)F)nc2)c(Cl)c1`: the concentration for half-maximal inhibition (IC50) was determined as 28 nM in series [5], 15 nM in series [1] and 16 nM in series [2]. In addition, the half-life in series [3] is 1.6 h; in series [4] it was 1.25 h.
On to `O=C(NCc1ccccc1OC(F)(F)F)c1ccc(OCC(F)(F)F)nc1`, for which, in series [2], the IC50 is 6 nM. For the same compound, the half-life in series [3] turned out to be 1.3 h; in series [4] it was 0.117 h.
Consider `O=C(NCCC(c1ccccc1)c1ccccc1)c1ccc(CCN2CCCC2)nc1`, for which the values for the 50% inhibitory concentration (IC50) in series [1] and in series [2] were 18 nM and 9 nM, respectively. Further, the half-life in series [3] amounted to 0.767 h; in series [4] it was 0.683 h.
In the same order, the values of `O=C(NCCC(c1ccccc1)c1ccccc1)c1ccc(OCC(F)(F)F)nc1` are 5.4 nM, 7.8 nM, 0.633 h and under 0.05 h.
For the compound `Nc1ccc(C(=O)NCCC(c2ccccc2)c2ccccc2)cn1`, it took 8.5 nM to reach half-maximal inhibition in series [2] (IC50). The results for the half-life in series [3] and in series [4] were 0.55 h and 0.0833 h, respectively.
Consider `O=C(NCc1ccc(Cl)cc1Cl)c1ccc(=O)[nH]c1`, for which the half-inhibitory concentration (IC50) in series [1] came to 400 nM; in series [2], 330 nM. For the same compound, the half-life was 1.3 h in series [3] and 3.18 h in series [4].
Take `CNS(=O)(=O)c1ccc(CNC(=O)c2ccc(OCC(F)(F)F)nc2)c(Cl)c1`: the IC50 in series [5] was determined as 31 nM; in series [1] it was 14 nM; in series [2], 19 nM. Moreover, the half-life came out at 1.35 h in series [3] and 0.417 h in series [4].
Regarding `CCOCCn1cc(C(=O)NCc2ccc(Cl)cc2Cl)ccc1=O`, the half-inhibitory concentration (IC50) in series [1] was found to be 16 nM; in series [2], 6 nM. Further, the half-life in series [3] is 0.4 h; in series [4], 0.317 h.
Regarding `CS(=O)(=O)c1ccccc1CNC(=O)c1ccc(OCCC(F)(F)F)nc1`, the half-maximal inhibitory concentration (IC50) in series [1] came to 270 nM.
In the case of `O=C(NCc1ccc(Cl)cc1Cl)c1ccc(CCN2CCCC2)nc1`, the IC50 in series [1] came out at 1500 nM.
In series [2], `CCOCCn1cc(C(=O)NCCC(c2ccccc2)c2ccccc2)ccc1=O` registered a half-maximal inhibitory concentration (IC50) of 4 nM. Besides, the half-life in series [3] amounted to 0.0667 h; in series [4] it was 0.0833 h.
In the same order, the values of `Nc1ccc(C(=O)NCc2ccc(Cl)cc2Cl)cn1` are 430 nM, 0.767 h and 0.733 h.
With `O=C(NCc1ccc(Cl)cc1Cl)c1ccc(OCC(F)(F)F)nc1`, the 50% inhibitory concentration (IC50) was determined as 18 nM in series [5], 6.6 nM in series [1] and 7.3 nM in series [2]. Further, in series [6], the concentration at 1 h worked out at 2500 nM. Further, the half-life worked out at 2.97 h in series [3] and 0.117 h in series [4].
For the compound `O=C(NCCC(c1ccccc1)c1ccccc1)c1ccc(=O)[nH]c1`, the half-inhibitory concentration (IC50) in series [1] was found to be 8.1 nM; in series [2], 10 nM. Also, the half-life in series [3] came to 1.6 h; in series [4] it was 0.117 h.
On to `N#Cc1ccc(CNC(=O)c2ccc(OCC(F)(F)F)nc2)c(Cl)c1`, for which the IC50 in series [5] was determined as 12 nM; in series [1], 14 nM. In addition, the half-life in series [3] worked out at 3.13 h; in series [4], 1.75 h.
